Test results as given in patent publication US6869961B2, “Store operated calcium influx inhibitors and methods of use” (Cellegy Pharmaceuticals, Inc., priority 2001, dated 2005).
Blank lines part the entries; values can stand above or below the compound they belong to.

How the values were obtained:
IL-2 [1] = experiment: IL-2 release from Jurkat cells (PMA and ionomycin, ELISA); format: cell-based, human; details: for IC50: Homo sapiens, Jurkat, Table III, 'the foregoing assay' of Example 2
Description: Since NFAT plays a critical role in IL-2 and TNFα gene transcription, the effects of the novel compounds on IL-2 and TNFα secretion from stimulated lymphoid cells were also investigated. Jurkat cells, in standard medium, were seeded into 24-well dishes at 1 million cells per well and were treated as follows: […], then stimulated with 20 ng/mL PMA and 1 μg/mL ionomycin for 5 hours. Following centrifugation, the supernatants were analyzed for IL-2 content by ELISA using a standard protocol.

NFAT = experiment: NFAT-regulated luciferase reporter assay in Jurkat cells; format: cell-based, human; details: for inhibition of NFAT activity: NFAT reporter assay, Jurkat cells
Description: The biological activity of column fractions and crystalline material was assessed in the NFAT activation assay using Jurkat cells stably transfected with NFAT-regulated luciferase reporter (see, FIGS. 9-14).
Jurkat cells, in standard medium, were seeded in 24-well dishes at 1 million cells per well and treated as follows. […] The cells were harvested 5 hours later and luciferase activity was measured in a luminometer.

[2] = system: oxazolone-induced contact hypersensitivity response; details: mouse, FIG. 6
TNBS-induced colitis = experiment: Rat TNBS-induced colitis model; format: in vivo; details: 50 mg/kg/day intracolonically, two weeks, day 14
Text: Human inflammatory bowel disease (IBD) is a chronic relapsing and remitting disease of unknown etiology that affects individuals of both sexes throughout life. The factors contributing to the two main forms of the disease, Crohn's disease and ulcerative colitis, are complex and probably involve abnormal immune responses and commensal intestinal microflora. A number of experimental models of intestinal inflammation have been developed, including those based on intracolonic instillation of 2,4,6-trinitrobenzene sulfonic acid (TNBS). TNBS-induced colitis shares many of the histopathological and clinical features of Crohn's disease, i.e. it is to some extent immune-mediated, produces long lasting ulcerative damage and thickening of the bowel wall, granulocyte and mononuclear cell infiltration and granuloma formation, and transmural inflammation of the mucosa, (Morris et al., Gastroenterology 96:795-803, 1989). This model has been widely used to evaluate potential treatments for colonic inflammation.
In the present study, the local anti-inflammatory effects of lovastatin were assessed in the rat TNBS-induced colitis model. Colitis was induced in male Wistar rats weighing 175-225 g by intracolonic instillation of the hapten TNBS (60 mg/ml) in 0.5 ml of 50% ethanol. Groups of 8 rats received the lovastatin formulation prepared in Example 11 (50 mg/kg/day), a positive control, budesonide (2.5 mg/kg/day), or vehicle (0.5% sodium carboxymethylcellulose) intracolonically 1 hour after induction of colitis, and at 12 h intervals thereafter for two weeks. The rats received 0.5 ml of test drug or vehicle at each dosing. On day 14 after induction of colitis, the animals were euthanized and the distal colon was removed and pinned out on a wax platform. The presence or absence of diarrhea was noted, as was the presence and severity of adhesions between the colon and other organs. The severity of colonic damage was scored using the criteria described in Appleyard and Wallace, Am. J. Physiol. 269 (Gastrointest.Liver Physiol. 32): G119-G125, 1995. […]

IL-8 = IL-8 production from Jurkat cells; format: cell-based, human
TNF-alpha = experiment: PBMC TNF-alpha release; format: cell-based; details: FIG. 4
Crohn's disease = experiment: Maintenance therapy of Crohn's disease in remission; format: in vivo, human; details: Crohn's disease subjects in remission
Description: Remission is defined as no need for oral prednisone and presence of a score of 150 or less on the Crohn's Disease Activity Index. This index incorporates eight items: the number of liquid or very soft stools in the seven days preceding the assessment, the severity of abdominal pain, general well-being, the presence or absence of an abdominal mass or extra-intestinal manifestation of the disease, the use of opiates to treat diarrhea, hematocrit, and weight. Scores in this index can range from 0 to approximately 600. Higher scores indicate greater disease activity.
Upon reaching remission, the subject takes lovastatin orally (Mevacor, 20-1000 mg) every day, in addition to one or more of the following: controlled release lovastatin tablet(s) targeting specific disease sites, lovastatin enema(s), or lovastatin rectal suppositories on a regular basis. On average, 50-60% of Crohn's disease subjects in remission relapse in 40 weeks.

IFN-gamma = IFN-gamma production from Jurkat cells; format: cell-based, human
IL-2 [3] = experiment: PBMC IL-2 release; format: cell-based; details: FIG. 3
[4] = system: rat basophilic leukemia (2H3) cells; experiment: 5-HT release from rat basophilic leukemia (2H3) cells; format: cell-based; details: FIG. 5
JNK = JNK phosphorylation in Jurkat T cells (Western blot); format: cell-based, human; set-up: dose or concentration left out as unconfirmed; details: lovastatin
Text: Cells were harvested, lysates prepared, and proteins Western blotted using antibodies directed against JNK or phospho-JNK (Thr183/Thr185).

NF-κB = NF-κB luciferase reporter in Jurkat T cells; format: cell-based, human; details: 20 μg/ml, 5 hr
Description: The next day, cells were preincubated with lovastatin (20 μg/ml) or vehicle control for 15 min, and then stimulated with PMA (20 ng/ml), ionomycin (1 μg/ml), or PMA+ionomycin for 5 hr. The cells were harvested, lysed, and lysates assayed for firefly luciferase and Renilla luciferase activity measured in a luminometer.

SMILES: O=C1C[C@@H](O)C[C@H](CCc2ccccc2)O1
IC50 (IL-2 [1]): 150 µM

SMILES: O=C1CCCC(CCc2ccccc2)O1 (stereo not shown)
IC50 (IL-2 [1]): > 50 µM

SMILES: O=C1C=CC(CCc2ccccc2)O1 (stereo not shown)
IC50 (IL-2 [1]): 15 µM

SMILES: CN1C(=O)N(c2cc(Cl)cc(Cl)c2)C(=O)C1(C)Cc1ccc(Br)cc1 (single isomer, unassigned) [BIRT377 less active enantiomer]
inhibition of NFAT activity (NFAT): very weak NFAT inhibitory activity

SMILES: CN1C(=O)N(c2cc(Cl)cc(Cl)c2)C(=O)[C@@]1(C)Cc1ccc(Br)cc1 [BIRT377]
inhibition of NFAT activity (NFAT): very weak NFAT inhibitory activity

SMILES: COC(=O)/C=C/C=C/C=C/c1c(-c2ccc(F)cc2)c2ccccc2n1C(C)C [Compound 1079-76-3C]
inhibition of TG+PMA-induced NFAT activity (NFAT; 5 μg/mL, 0.3 μM TG + 20 ng/mL PMA, 5 hours): approximately 85%
expression of NFAT-regulated reporter gene (NFAT; Jurkat cells stimulated with ionomycin + PMA or thapsigargin + PMA): inhibited
IL-2 release by PMA and ionomycin in Jurkat cells (IL-2 [1]; 5.0 μg/mL, 30 min pre-incubation, 5 hours): inhibit

SMILES: CC[C@H](C)C(=O)O[C@H]1C[C@H](O)C=C2C=C[C@H](C)[C@H](CC[C@@H](O)C[C@@H](O)CC(=O)O)[C@H]21 [Pravastatin, pravastatin]
inhibition of NFAT activity (NFAT): inactive

SMILES: CC(C)c1c(C(=O)Nc2ccccc2)c(-c2ccccc2)c(-c2ccc(F)cc2)n1CC[C@@H](O)C[C@@H](O)CC(=O)O [atorvastatin]
inhibition of NFAT activity (NFAT): inactive

SMILES: COC(=O)/C=C/C=C/C=C/c1c(-c2ccc(F)cc2)c2ccccc2n1C(C)C [drawing 85]
IC50 (IL-2 [1]): 3 µM

SMILES: CC(C)n1c(/C=C/C(O)CC(O)CC(=O)O)c(-c2ccc(F)cc2)c2ccccc21 (stereo not shown) [fluvastatin]
inhibition of NFAT activity (NFAT): inactive

SMILES: CC[C@H](C)C(=O)O[C@H]1C[C@@H](C)C=C2C=C[C@H](C)[C@H](CC[C@@H]3C[C@@H](O)CC(=O)O3)[C@H]21 [lovastatin]
inhibition of oxazolone-induced contact hypersensitivity response [2]: inhibition
inhibition of NFAT activity (NFAT): able to inhibit
colonic MPO activity (TNBS-induced colitis): reduced
colonic damage score (TNBS-induced colitis): significant (p<0.05) reduction
global colitis score (TNBS-induced colitis): significant (p<0.05) reduction
inhibition of IL-8 production (IL-8): inhibition
inhibition of PBMC TNF-alpha release (TNF-alpha): inhibition
disease activity (Crohn's disease): less severe
remission time between relapse (Crohn's disease; oral 20-1000 mg every day plus local forms): longer
inhibition of Jurkat IL-2 release (IL-2 [1]; FIG. 2): inhibition
inhibition of IFN-gamma production (IFN-gamma): inhibition
inhibition of PBMC IL-2 release (IL-2 [3]): inhibition
inhibition of 5-hydroxytryptomine (5-HT) release [4]: inhibition
PMA-induced JNK phosphorylation (JNK): little effect
JNK phosphorylation induced by PMA+ionomycin (JNK; 15 min pre-incubation, 30 min stimulation): inhibits
calcium-dependent NF-κB activation (ionomycin synergy with PMA) (NF-κB): strongly inhibits

SMILES: CCC(C)C(=O)OC1CCC=C2C=CC(C)C(CCC(O)CC(O)CC(=O)O)C21 (stereo not shown) [mevastatin open chain form]
inhibition of NFAT activity (NFAT): only the lactone form was active

SMILES: CC[C@H](C)C(=O)O[C@H]1CCC=C2C=C[C@H](C)[C@H](CC[C@@H]3C[C@@H](O)CC(=O)O3)[C@H]21 [mevastatin]
inhibition of NFAT activity (NFAT): able to inhibit
inhibition of NFAT activity (NFAT; listed as mevastatin lactone form): active

The remaining lines, values ahead:

IC50 (IL-2 [1]): 300 µM
SMILES: O=C1C[C@H](O)C[C@H](CCc2ccccc2)O1

IC50 (IL-2 [1]): 5 µM
SMILES: O=C1C=CCC(CCc2ccccc2)O1 (stereo not shown)

IC50 (IL-2 [1]): > 50 µM
SMILES: O=C1CCC(CCc2ccccc2)O1 (stereo not shown)

IC50 (IL-2 [1]): > 50 µM
SMILES: O=C1C=C(CCc2ccccc2)CO1

IC50 (IL-2 [1]): 12 to 40 µM
SMILES: CCOC(=O)/C=C/C=C/CCc1ccccc1

IC50 (IL-2 [1]): 4 to 12 µM
SMILES: CCOC(=O)/C=C/C=C/C=C/c1ccccc1
